Legend:
[1] = system: SC-103 human Cop 1 specific T cell clone; assay: Proliferation of Cop 1 specific T cell line (3H-thymidine uptake); conditions: 10 µg antigen; relative to Cop 1
[2] = system: L-22-1 T cell clone; assay: as above; conditions: 10 µg antigen; relative to Cop 1
[3] = system: anti-Cop-1 (3-1-45) monoclonal antibody; assay: RIA: binding of anti-Cop 1 monoclonal antibody to coated antigen; conditions: relative to Cop 1 reference standard; 2 µg/ml coating antigen
[4] = system: BALB/c-Ts-Cop-1 T cell line; assay: Proliferation of Cop 1 specific T cell line (3H-thymidine uptake); conditions: 10 µg antigen; relative to Cop 1
[5] = system: anti-Cop-1 (5-7-2) monoclonal antibody; assay: RIA: binding of anti-Cop 1 monoclonal antibody to coated antigen; conditions: relative to Cop 1 reference standard; 2 µg/ml coating antigen
[6] = system: anti-Cop-1 (3-3-9) monoclonal antibody; assay: as above; conditions: relative to Cop 1 reference standard; 2 µg/ml coating antigen
[7] = system: experimental allergic encephalomyelitis (EAE) in (SJL/JxBALB/c)FI mice; assay: Blocking of experimental allergic encephalomyelitis (EAE) by injection with complete adjuvant; assay type: in vivo, mouse; conditions: for Incidence of EAE: antigen included in the encephalitogenic inoculum, animals with EAE/animals; for % Blocking: blocking of EAE vs control inoculum; for Mean Score: disease score 0 (healthy) to 5 (dead); for Mean Onset: animals not protected, onset = day of disease score of at least 1
Source text: Blocking of Experimental Allergic Encephalomyelitis—To test the physiological activity of TV-markers, protection from experimental allergic encephalomyelitis (EAE) was investigated in mice. Injection of Copolymer 1 in complete Freund's adjuvant together with the encephalitogen can block EAE essentially as described in Aharoni et al., 17 EUR. J. IMMUNOL. 23 (1993). Other researchers have observed that the therapeutic effect of Copolymer 1 in multiple sclerosis patients is also associated with the induction of TH2 cells. Lahat et al., 244 J. NEUROL. 129 (1997). In this example, EAE is blocked by different polypeptides of the present invention.
Pertussis toxin (0.25 ml, 250 ng, Sigma) is injected intravenously, immediately after and 48 hr later. […] 2156 (1979).
EAE blocking by injection with complete adjuvant—Each antigen being tested was included in the encephalitogenic inoculum. […] Also shown is the mean onset of EAE in animals which were not protected. Disease intensity is scored daily in mice with a score of zero (0=healthy) to five (5=dead).

In the case of “glatiramer acetate [compound 55296, reference compound]”, the “3H-Thymidine incorporation, % Cop1, SC-103” value [1] is reported as 81%, the “3H-Thymidine incorporation, % Cop1, L-22-1” value [2] is reported as 106% and the “Binding of mAb anti-Cop-1 (3-1-45), % Cop1 binding” value (shortened to “Binding … (3-1-45), % Cop1 binding”) [3] is reported as 83%. The “3H-Thymidine incorporation, % Cop1, BALB/c-Ts-Cop-1” value [4] was 110%, the “Binding of mAb anti-Cop-1 (5-7-2), % Cop1 binding” value (“Binding … (5-7-2), % Cop1 binding” for short) [5] was 82% and the “Binding of mAb anti-Cop-1 (3-3-9), % Cop1 binding” value (shortened to “Binding … (3-3-9), % Cop1 binding”) [6] was 91%.

In the case of “glatiramer acetate [compound 03494, reference compound]”, the “Incidence of EAE” value [7] is reported as 0/10, the “% Blocking” value [7] is reported as 100% and the “Mean Score” value [7] is reported as 0.

With “AKKYAKKEKAAKKAYKKEAKAKAAEAAAKEAAYEA [TV-35]” the “3H-Thymidine incorporation, % Cop1, SC-103” value [1] was 0%, the “3H-Thymidine incorporation, % Cop1, L-22-1” value [2] was 0% and the “Binding … (3-1-45), % Cop1 binding” value [3] was 0%. For the same molecule, the “3H-Thymidine incorporation, % Cop1, BALB/c-Ts-Cop-1” value [4] was 28%, the “Binding … (5-7-2), % Cop1 binding” value [5] was 1% and the “Binding … (3-3-9), % Cop1 binding” value [6] was 0%.

For “AKKYAKKEKAYAKKAEKAAKKAEAKAYKAAEAKKKAEAKYKAEAAKAAAKEAAYEA [TV-56]”, the “3H-Thymidine incorporation, % Cop1, SC-103” value [1] was 0%, the “3H-Thymidine incorporation, % Cop1, L-22-1” value [2] was 0% and the “Binding … (3-1-45), % Cop1 binding” value [3] was 6%. The “3H-Thymidine incorporation, % Cop1, BALB/c-Ts-Cop-1” value [4] was 59%, the “Binding … (5-7-2), % Cop1 binding” value [5] was 91% and the “Binding … (3-3-9), % Cop1 binding” value [6] was 2%.

For “AKKYAKKAKAEKAKKAYKAAEAKKAAKYEKAAAEKAAAKEAAYEA [TV-45]”, the “Incidence of EAE” value [7] was 0/10 and the “% Blocking” value [7] was 100%.

“glatiramer acetate [compound 55396, reference compound]” was tested, and the “3H-Thymidine incorporation, % Cop1, SC-103” value [1] was 80%, the “3H-Thymidine incorporation, % Cop1, L-22-1” value [2] was 105% and the “Incidence of EAE” value [7] was 0/10. The “% Blocking” value [7] was 100%, the “Mean Score” value [7] was 0 and the “Binding … (3-1-45), % Cop1 binding” value [3] was 85%. For the same molecule, the “3H-Thymidine incorporation, % Cop1, BALB/c-Ts-Cop-1” value [4] was 105%, the “Binding … (5-7-2), % Cop1 binding” value [5] was 86% and the “Binding … (3-3-9), % Cop1 binding” value [6] was 90%.

B1: AKKYAKKEKAYAKKAEKAAKKAEAKAYKAAEAKKKAKAEAKKYAKAAKAEKKEYAAAEAKYKAEAAKKAYKAEAAKAAAKEAAYEA (peptide)
chain: AKKYAKKEKAYAKKAEKAAKKAEAKAYKAAEAKKKAKAEAKKYAKAAKAEKKEYAAAEAKYKAEAAKKAYKAEAAKAAAKEAAYEA
In the case of B1, the “3H-Thymidine incorporation, % Cop1, SC-103” value [1] is reported as 0%, the “3H-Thymidine incorporation, % Cop1, L-22-1” value [2] is reported as 1% and the “Mean Onset” value [7] is reported as 12.0 days. For the same molecule, the “Incidence of EAE” value [7] was 3/10, the “% Blocking” value [7] was 70% and the “Binding … (3-1-45), % Cop1 binding” value [3] was 6%. The “3H-Thymidine incorporation, % Cop1, BALB/c-Ts-Cop-1” value [4] was 44%, the “Binding … (5-7-2), % Cop1 binding” value [5] was 76% and the “Binding … (3-3-9), % Cop1 binding” value [6] was 2%.

B2: AKKYAKKEKAYAKKAEKAAKKAEAKAYKAAEAKKKAKAEAKKYAKAAKAEKKEYAAAEAKYKAEAAKAAAKEAAYEA (peptide)
chain: AKKYAKKEKAYAKKAEKAAKKAEAKAYKAAEAKKKAKAEAKKYAKAAKAEKKEYAAAEAKYKAEAAKAAAKEAAYEA
With B2 the “3H-Thymidine incorporation, % Cop1, SC-103” value [1] was 0%, the “3H-Thymidine incorporation, % Cop1, L-22-1” value [2] was 1% and the “Mean Onset” value [7] was 14.0 days. The “Incidence of EAE” value [7] was 1/9, the “% Blocking” value [7] was 89% and the “Binding … (3-1-45), % Cop1 binding” value [3] was 9%. The “3H-Thymidine incorporation, % Cop1, BALB/c-Ts-Cop-1” value [4] was 52%, the “Binding … (5-7-2), % Cop1 binding” value [5] was 37% and the “Binding … (3-3-9), % Cop1 binding” value [6] was 6%.

B3: AKKYAKKEKAYAKAKKAEAKAAKKAKAEAKKYAKAAKAEKKEYAAAEAKYKAEAAKAAAKEAAYEA (peptide)
chain: AKKYAKKEKAYAKAKKAEAKAAKKAKAEAKKYAKAAKAEKKEYAAAEAKYKAEAAKAAAKEAAYEA
In the case of B3, the “Mean Onset” value [7] is reported as 11.7 days, the “Incidence of EAE” value [7] is reported as 6/10 and the “% Blocking” value [7] is reported as 40%.

B4: AKKYAKKAEKAYAKKAKAAKEKKAYAKKEAKAYKAAEAKKKAKAEAKKYAKEAAKAKKEAYKAEAKKYAKAAKAEKKEYAAAEAKKAEAAKAYKAEAAKAAAKEAAYEA (peptide)
chain: AKKYAKKAEKAYAKKAKAAKEKKAYAKKEAKAYKAAEAKKKAKAEAKKYAKEAAKAKKEAYKAEAKKYAKAAKAEKKEYAAAEAKKAEAAKAYKAEAAKAAAKEAAYEA
notes: reversed-phase fraction 2 designated TV-109
With B4 the “Incidence of EAE” value [7] was 0/10 and the “% Blocking” value [7] was 100%.

From patent US7615359B2, “Copolymer 1 related polypeptides for use as molecular weight markers and for therapeutic use” (Yeda Research and Development Co., Ltd., priority 1998, dated 2009)
